Source: patent publication US9296741B2, “Bromodomain inhibitors” (priority 2012, dated 2016)

What was measured:
[1] = test system: OPM-2 human multiple myeloma xenograft tumors; test: animal or person; settings: Mus musculus
[2] = molecular target: human BRD4 first bromodomain (BDI_K57-E168) (Homo sapiens (Human), UniProt O60885); test: TR-FRET bromodomain binding assay, BRD4 first bromodomain
[3] = molecular target: human BRD4 second bromodomain (BDII_E352-M457) (Homo sapiens (Human), UniProt O60885); test: TR-FRET bromodomain binding assay, BRD4 second bromodomain
[4] = test system: breast cancer cell line MX-1; test: MX-1 cell line proliferation assay; assay type: cell-based, human; settings: Homo sapiens, MX1, 72 h; MX-1 cells, 3-day proliferation, Cell Titer Glo; read-out: Cellular proliferation: EC50
[5] = Human liver microsome stability assay; assay type: in vitro ADME; settings: both sexes, human, microsomes, pH 7.4
[6] = Rat liver microsome stability assay; assay type: in vitro ADME; settings: rat liver microsomes (male Sprague-Dawley), 0.5 μM test compound, 0.25 mg/mL microsomal protein, pH 7.4, 37° C.; read-out: Stability in rat liver microsomes (t1/2 in minutes)
[7] = Mouse liver microsome stability assay; assay type: in vitro ADME; settings: male, CD1, mouse, microsomes, pH 7.4
[8] = test system: LPS induced IL-6 production; test: LPS (lipopolysaccharide) induced IL-6 production mouse assay; assay type: in vivo; settings: Mus musculus, read-out: Inhibition of LPS induced IL-6 production in Mice, % inhibition at 3 mg/kg; 3 mg/kg oral, 1 h before LPS; serum IL-6 2 h after LPS

| SMILES | change in vivo at 1 mg/kg ([1]; OPM-2, iv, read-out: % TGD (tumor growth delay), OPM-2, 1 mg/kg/day, IV, Q4Dx3, vehicle B) [%] | inhibition in vivo at 1 mg/kg ([1]; OPM-2, iv, read-out: % TGI (tumor growth inhibition), OPM-2, 1 mg/kg/day, IV, Q4Dx3, vehicle B) [%] | Ki [2] [nM] | Ki [3] [nM] | EC50 [4] [nM] | half-life at 0.5 μM [5] [min] | half-life at 0.5 μM [6] [min] | half-life at 0.5 μM [7] [min] | change in vivo at 6 mg/kg ([1]; OPM-2, po, read-out: % TGD (tumor growth delay), OPM-2, 6 mg/kg/day, PO, QDx21, vehicle A) [%] | change in vivo at 20 mg/kg ([1]; OPM-2, po, read-out: % TGD (tumor growth delay), OPM-2, 20 mg/kg/day, PO, QDx21, vehicle A) [%] | inhibition in vivo at 6 mg/kg ([1]; OPM-2, po, read-out: % TGI (tumor growth inhibition), OPM-2, 6 mg/kg/day, PO, QDx21, vehicle A) [%] | inhibition in vivo at 20 mg/kg ([1]; OPM-2, po, read-out: % TGI (tumor growth inhibition), OPM-2, 20 mg/kg/day, PO, QDx21, vehicle A) [%] | inhibition in vivo at 3 mg/kg [8] [%] | change in vivo at 3 mg/kg ([1]; OPM-2, po, read-out: % TGD (tumor growth delay), OPM-2, 3 mg/kg/day, PO, QDx21, vehicle A) [%] | inhibition in vivo at 3 mg/kg ([1]; OPM-2, po, read-out: % TGI (tumor growth inhibition), OPM-2, 3 mg/kg/day, PO, QDx21, vehicle A) [%] |
| --- | --- | --- | --- | --- | --- | --- | --- | --- | --- | --- | --- | --- | --- | --- | --- |
| CC(C)C[C@H](NC(=O)[C@H](Cc1ccccc1)NC(=O)c1cnccn1)B(O)O [Bortezomib] | 93 | 80 |  |  |  |  |  |  |  |  |  |  |  |  |  |
| Cn1cc(-c2cc(S(C)(=O)=O)ccc2OCC2CC2)c2cc[nH]c2c1=O [Example 158, 4-[2-(cyclopropylmethoxy)-5-(methylsulfonyl)phenyl]-6-methyl-1,6-dihydro-7H-pyrrolo[2,3-c]pyridin-7-one] |  |  | 4.1 | 9.7 | 24.3 | > 120 | > 120 | > 120 | 34 | 72 | 53 | 78 |  |  |  |
| CCS(=O)(=O)c1ccc(O[C@H]2CC[C@@H](OC)CC2)c(-c2cn(C)c(=O)c3[nH]ccc23)c1 [Example 248, 4-{5-(ethylsulfonyl)-2-[(cis-4-methoxycyclohexyl)oxy]phenyl}-6-methyl-1,6-dihydro-7H-pyrrolo[2,3-c]pyridin-7-one] |  |  | 1.9 | 1.3 | 26.4 | 13 | 16 | 5 |  |  |  |  | 82 |  |  |
| CNS(=O)(=O)c1ccc(OCC2CC2)c(-c2cn(C)c(=O)c3[nH]ccc23)c1 [Example 250, 4-(cyclopropylmethoxy)-N-methyl-3-(6-methyl-7-oxo-6,7-dihydro-1H-pyrrolo[2,3-c]pyridin-4-yl)benzenesulfonamide] |  |  | 1.5 | 1.5 | 18 | 56 | 36 | 37 |  |  |  |  |  | 29 | 42 |
| CCS(=O)(=O)c1ccc(O[C@H]2CC[C@H](OC)CC2)c(-c2cn(C)c(=O)c3[nH]ccc23)c1 [Example 260, 4-{5-(ethylsulfonyl)-2-[(trans-4-methoxycyclohexyl)oxy]phenyl}-6-methyl-1,6-dihydro-7H-pyrrolo[2,3-c]pyridin-7-one] |  |  | 1 | 1.2 | 6.3 | 34 | 58 | 29 |  |  |  |  | 66 |  |  |
| CCS(=O)(=O)c1ccc(NC2CC2)c(-c2cn(C)c(=O)c3[nH]ccc23)c1 [Example 267, 4-[2-(cyclopropylamino)-5-(ethylsulfonyl)phenyl]-6-methyl-1,6-dihydro-7H-pyrrolo[2,3-c]pyridin-7-one] |  |  | 4.4 | 4.2 | 43.6 | 95 | 18 | > 120 |  |  |  |  | 74 |  |  |
| CN(C)S(=O)(=O)c1ccc(OCC2CC2)c(-c2cn(C)c(=O)c3[nH]ccc23)c1 [Example 273, 4-(cyclopropylmethoxy)-N,N-dimethyl-3-(6-methyl-7-oxo-6,7-dihydro-1H-pyrrolo[2,3-c]pyridin-4-yl)benzenesulfonamide] |  |  | 1.2 | 1.3 | 9 | 9 | 12 | 8 |  |  |  |  | 47 |  |  |
| Cn1cc(-c2cc(S(C)(=O)=O)ccc2Oc2ccc(F)cc2F)c2cc(CO)[nH]c2c1=O [Example 276, 4-[2-(2,4-difluorophenoxy)-5-(methylsulfonyl)phenyl]-2-(hydroxymethyl)-6-methyl-1,6-dihydro-7H-pyrrolo[2,3-c]pyridin-7-one] |  |  | 11.4 | 17.1 | 149 | > 120 | 82 | 71 |  |  |  |  | 25 |  |  |
| CC(O)c1cc2c(-c3cc(S(C)(=O)=O)ccc3Oc3ccc(F)cc3F)cn(C)c(=O)c2[nH]1 (stereo not shown) [Example 278, 4-[2-(2,4-difluorophenoxy)-5-(methylsulfonyl)phenyl]-2-(1-hydroxyethyl)-6-methyl-1,6-dihydro-7H-pyrrolo[2,3-c]pyridin-7-one] |  |  | 12.1 | 11.2 | 135 | > 120 | > 120 | > 120 |  |  |  |  | 51 |  |  |
| Cn1cc(-c2cc(S(=O)(=O)N3CCOCC3)ccc2OCC2CC2)c2cc[nH]c2c1=O [Example 286, 4-[2-(cyclopropylmethoxy)-5-(morpholin-4-ylsulfonyl)phenyl]-6-methyl-1,6-dihydro-7H-pyrrolo[2,3-c]pyridin-7-one] |  |  | 12.1 | 5.4 | 74.6 | 10 | 19 | 11 |  |  |  |  | 57 |  |  |
| Cn1cc(-c2cc(S(C)(=O)=O)cnc2Oc2ccc(F)cc2F)c2cc[nH]c2c1=O [Example 288, 4-[2-(2,4-difluorophenoxy)-5-(methylsulfonyl)pyridin-3-yl]-6-methyl-1,6-dihydro-7H-pyrrolo[2,3-c]pyridin-7-one] |  |  | 71.9 | 53.9 | 173 | 85 | > 120 | > 120 |  |  |  |  | 60 |  |  |
| Cn1cc(-c2cc(S(=O)(=O)C3CC3)ccc2Oc2ccc(F)cc2F)c2cc[nH]c2c1=O [Example 290, 4-[5-(cyclopropylsulfonyl)-2-(2,4-difluorophenoxy)phenyl]-6-methyl-1,6-dihydro-7H-pyrrolo[2,3-c]pyridin-7-one] |  |  | 5 | 1.9 | 36.2 | 73 | 48 | 52 |  |  |  |  | 64 |  |  |
| CCS(=O)(=O)c1cnc(Oc2ccc(F)cc2F)c(-c2cn(C)c(=O)c3[nH]ccc23)c1 [Example 294, 4-[2-(2,4-difluorophenoxy)-5-(ethylsulfonyl)pyridin-3-yl]-6-methyl-1,6-dihydro-7H-pyrrolo[2,3-c]pyridin-7-one] |  |  | 47.9 | 21.7 | 332 | > 120 | > 120 | > 120 |  |  |  |  | 79 |  |  |
| CCS(=O)(=O)c1ccc(Oc2ccc(C#N)cc2)c(-c2cn(C)c(=O)c3[nH]ccc23)c1 [Example 304, 4-[4-(ethylsulfonyl)-2-(6-methyl-7-oxo-6,7-dihydro-1H-pyrrolo[2,3-c]pyridin-4-yl)phenoxy]benzonitrile] |  |  | 9 | 21.8 | 32.3 | > 120 | 65 | 72 |  |  |  |  | 67 |  |  |
| Cn1cc(-c2cc(S(=O)(=O)N3CC(F)(F)C3)ccc2OCC2CC2)c2cc[nH]c2c1=O [Example 308, 4-{2-(cyclopropylmethoxy)-5-[(3,3-difluoroazetidin-1-yl)sulfonyl]phenyl}-6-methyl-1,6-dihydro-7H-pyrrolo[2,3-c]pyridin-7-one] |  |  | 49.9 | 6.5 | 29.3 | 20 | 10 | 16 |  |  |  |  | 48 |  |  |
| Cn1cc(-c2cc(CS(C)(=O)=O)ccc2Oc2ccc(F)cc2F)c2cn[nH]c2c1=O [Example 321, 4-{2-(2,4-difluorophenoxy)-5-[(methylsulfonyl)methyl]phenyl}-6-methyl-1,6-dihydro-7H-pyrazolo[3,4-c]pyridin-7-one] |  |  | 33.4 | 32.1 | 34.4 | > 120 | 103 | > 120 |  |  |  |  | 63 |  |  |
| CCS(=O)(=O)c1ccc(N2CCCC2)c(-c2cn(C)c(=O)c3[nH]ccc23)c1 [Example 330, 4-[5-(ethylsulfonyl)-2-(pyrrolidin-1-yl)phenyl]-6-methyl-1,6-dihydro-7H-pyrrolo[2,3-c]pyridin-7-one] |  |  | 50.9 | 4.6 | 30.6 | 29.9 | 12 | 28 |  |  |  |  | 45 |  |  |
